27 compounds from patent publication US12558428B2, “Heterobifunctional compounds and their use in treating disease” (Halda Therapeutics OpCo, Inc., priority 2024, dated 2026) can be followed below.

Each structure is given as a SMILES string. Read-outs that look alike come from different tables or passages of the source. Bounds are passed on as bounds.

Holding throughout (type): cell-based
Test [1] deals with T-Rex 293 cells having increased expression of estrogen receptor alpha protein. The experiment in a line: Cellular growth inhibition assay, T-Rex 293 cells, (+) doxycycline. As to conditions: T-REx-293, 72 h, 72 hours. The method, boiled down: (§1)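 Viability read-out was CellTiter-Glo 2.0 luminescence after 72 h compound exposure, normalized to zero luminescence and fitted by four-parameter regression to give GI50. Cells were an ERα-inducible T-Rex 293 clone cultured with or without 3 ng/mL doxycycline in charcoal-stripped, phenol red-free medium.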

In test [2] the test system is T-Rex 293 cells lacking increased expression of estrogen receptor alpha protein. The test is described as follows: Cellular growth inhibition assay, T-Rex 293 cells, (−) doxycycline. The following applies: T-REx-293, 72 h, 72 hours. A digest of the protocol:
as §1

For test [3], the system named is MCF7 cells (ATCC #HTB-22). The test is described as follows: Cellular growth inhibition assay, MCF7 cells purchased from ATCC. As to conditions: Homo sapiens, MCF7, 144 h, Table 8-A; MCF7 cells purchased from ATCC; six days; CellTiter-Glo; read-out: GI50. A digest of the protocol: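 MCF7 cells in RPMI 1640 with 10% FBS and 0.2 U/ml insulin, seeded at 1,500 cells/well (ATCC) or 225 cells/well (ECACC). Compounds added 24 h later, then 6 days at 37° C. Viability by CellTiter-Glo 2.0 luminescence. GI50 from four-parameter fit.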
A general note: Cellular ATP, detected with luciferase, serves as a proxy for viable cell number.

Setting [4] is: Table 7-A, T-Rex 293 cells with doxycycline (increased ERα expression), CellTiter-Glo, read-out: (+) Dox GI50.
The mark [5] stands for this setting: Table 7-A, T-Rex 293 cells without doxycycline (lacking increased ERα expression), CellTiter-Glo, read-out: (−) Dox GI50.
Setting [6] is: T-Rex 293 cells with doxycycline-induced ERα expression, CellTiter-Glo 2.0, read-out: (+) Dox TRex ERa (GI50).
Setting [7] is: T-Rex 293 cells without doxycycline, CellTiter-Glo 2.0, read-out: (−) Dox TRex ERa (GI50).

By GI50 is commonly meant the concentration giving 50% growth inhibition. For `Cc1sc2c(c1C)C(c1ccc(N3CC(CCN4CC(COc5ccc([C@H]6c7ccc(O)cc7CC[C@H]6c6ccccc6)cc5)C4)C3)cc1)=N[C@@H](C)c1nnc(C)n1-2` [III-85], the GI50 in test [1] (setting [4]) was 50 to 500 nM; in test [2] (setting [5]), 500 to 2500 nM; in test [3], 50 to 500 nM.

Take `Cc1sc2c(c1C)C(c1ccc(OCCOCCCN3CC[C@H](Oc4ccc(C5=C(c6ccc(Cl)cc6Cl)CCCc6cc(O)ccc65)cc4)C3)cc1)=N[C@@H](C)c1nnc(C)n1-2` [I-36, 8-(2,4-dichlorophenyl)-9-(4-(((S)-1-(3-(2-(4-((S)-2,3,6,9-tetramethyl-6H-thieno[3,2-f][1,2,4]triazolo[4,3-a][1,4]diazepin-4-yl)phenoxy)ethoxy)propyl)pyrrolidin-3-yl)oxy)phenyl)-6,7-dihydro-5H-benzo[7]annulen-3-ol]: the GI50 in test [1] (setting [6]), in test [2] (setting [7]) and in test [3] was 500 to 2500 nM each time.

Regarding `CC1=C(c2c(F)cc(F)cc2F)[C@H](c2ccc(OCCN3CCC[C@]4(CCN(c5ccc(C6=N[C@@H](C)c7nnc(C)n7-c7sc(C)c(C)c76)cc5)C4)C3)cc2)Oc2ccc(O)cc21` [V-7], the GI50 is below 50 nM in test [1] (setting [4]), 50 to 500 nM in test [2] (setting [5]) and 50 to 500 nM in test [3].

For `Cc1sc2c(c1C)C(c1ccc(N3CC4(CCC(CN5CCC(c6ccc(C7=C(c8ccccc8)CCCc8cc(C(=O)O)ccc87)cc6)CC5)CC4)C3)cc1)=N[C@@H](C)c1nnc(C)n1-2` [IV-44], the GI50 in test [1] (setting [4]) was below 50 nM; in test [2] (setting [5]), 500 to 2500 nM; in test [3], below 50 nM.

In the case of `Cc1sc2c(c1C)C(c1ccc(N3CC(N4CCN(CCOc5ccc([C@@H]6c7ccc(O)cc7CC[C@@H]6c6ccccc6)cc5)CC4)C3)cc1)=N[C@@H](Cc1ncco1)c1nnc(C)n1-2` [III-113], the GI50 was below 50 nM in test [1] (setting [4]), 50 to 500 nM in test [2] (setting [5]) and below 50 nM in test [3].

On to `Cc1sc2c(c1C)C(c1ccc(N3CCC(N4CC(Oc5ccc([C@@H]6c7ccc(O)cc7CC[C@@H]6c6ccccc6)cc5)C4)CC3)cc1)=N[C@@H](C)c1nnc(C)n1-2` [III-7], for which the GI50 lay in the range of 50 to 500 nM in test [1] (setting [4]), 500 to 2500 nM in test [2] (setting [5]) and 50 to 500 nM in test [3].

`Cc1sc2c(c1C)C(c1ccc(N3CC(CN4CCC(F)(CC5CN(c6ccc([C@@H]7c8ccc(O)cc8CC[C@@H]7c7ccccc7)cc6)C5)CC4)C3)cc1)=N[C@@H](C)c1nnc(C)n1-2` [III-212]: the GI50 in test [1] (setting [4]) is below 50 nM; in test [2] (setting [5]), 50 to 500 nM; in test [3], below 50 nM.

As to `COC1(CN2CCN(c3ccc([C@@H]4c5ccc(O)cc5CC[C@@H]4c4ccccc4)cc3)CC2)CCN(c2ccc(C3=N[C@@H](C)c4nnc(C)n4-c4sc(C)c(C)c43)cc2)CC1` [III-121], the 50% growth inhibitory concentration (GI50) in test [1] (setting [4]) was 500 to 2500 nM; in test [2] (setting [5]), above 2500 nM; in test [3], 500 to 2500 nM.

Consider `Cc1sc2c(c1C)C(c1ccc(N3C[C@H]4C[C@@H]3CN4CCOc3ccc([C@@H]4c5ccc(O)cc5CC[C@@H]4c4ccccc4)cc3)cc1)=NC(Cc1ncco1)c1nnc(C)n1-2` (stereo partly drawn) [III-40], for which the GI50 in test [1] (setting [4]) is 50 to 500 nM; in test [2] (setting [5]) it was 50 to 500 nM; in test [3], below 50 nM.

With `Cc1sc2c(c1C)C(c1ccc(N3CCC(O)(CN4CCN(c5ccc([C@H]6c7ccc(O)cc7CC[C@H]6c6ccc(F)cc6F)cc5)CC4)CC3)cc1)=N[C@H](Cc1ncco1)c1nnc(C)n1-2` [III-192], the GI50 in test [1] (setting [4]), in test [2] (setting [5]) and in test [3] was above 2500 nM each time.

Consider `COc1cc(N2CCN(CC3(O)CCN(c4ccc(C5=N[C@@H](C)c6nnc(C)n6-c6sc(C)c(C)c65)c(F)c4)CC3)CC2)ccc1[C@H]1c2ccc(O)cc2CC[C@H]1c1cccc(F)c1` (single isomer, unassigned) [III-343], for which the GI50 in test [1] (setting [4]) is 50 to 500 nM; in test [2] (setting [5]) it was 50 to 500 nM; in test [3], below 50 nM.

For `Cc1sc2c(c1C)C(c1ccc(N3CC4(CC(CN5CCN(c6cc(F)c([C@@H]7c8ccc(O)cc8CC[C@@H]7c7ccc(F)cc7)c(F)c6)CC5)C4)C3)cc1)=N[C@@H](C)c1nnc(C)n1-2` [III-296], the values for the GI50 in test [1] (setting [4]), in test [2] (setting [5]) and in test [3] were 50 to 500 nM, 500 to 2500 nM and 50 to 500 nM, respectively.

Take `Cc1sc2c(c1C)C(c1ccc(N3CCC(C(=O)N4CCN(c5ccc([C@@H]6c7ccc(O)cc7CC[C@@H]6c6ccccc6)cc5)CC4)CC3)cc1)=N[C@@H](Cc1ncco1)c1nnc(C)n1-2` [III-149]: the GI50 in test [1] (setting [4]) was below 50 nM; in test [2] (setting [5]), 50 to 500 nM; in test [3], below 50 nM.

`Cc1sc2c(c1C)C(c1ccc(N3CCC(C(=O)N4CC(c5ccc([C@@H]6c7ccc(O)cc7CC[C@@H]6c6ccccc6)cc5)C4)CC3)cc1)=N[C@@H](C)c1nnc(C)n1-2` [III-170]: the GI50 was below 50 nM in test [1] (setting [4]), 50 to 500 nM in test [2] (setting [5]) and 50 to 500 nM in test [3].

Turning to `Cc1sc2c(c1C)C(c1ccc(N3CCC(O)(CN4CCN(c5ccc([C@@H]6c7ccc(O)cc7CC[C@@H]6c6ccc(F)cc6)c(F)c5)CC4)CC3)cc1)=N[C@@H](C)c1nnc(C)n1-2` [III-248], the GI50 in test [1] (setting [4]) was below 50 nM; in test [2] (setting [5]), 500 to 2500 nM; in test [3] it was below 50 nM.

On to `CC1=C(c2c(F)cc(F)cc2F)[C@@H](c2ccc(C3CCN(CC4(O)CCN(c5ccc(C6=N[C@@H](C)c7nnc(C)n7-c7sc(C)c(C)c76)cc5)CC4)CC3)cc2)Oc2ccc(O)cc21` [V-32], for which the 50% growth inhibitory concentration (GI50) in test [1] (setting [4]) was below 50 nM; in test [2] (setting [5]), 500 to 2500 nM; in test [3], 50 to 500 nM.

In the case of `Cc1sc2c(c1C)C(c1ccc(N3CCC(O)(CN4CCN(c5ccc([C@@H]6c7ccc(O)cc7CC[C@@H]6c6ccc(F)cc6)cc5)CC4)CC3)cc1)=N[C@@H](Cc1ncco1)c1nnc(C)n1-2` [III-210], the GI50 in test [1] (setting [4]) was below 50 nM; in test [2] (setting [5]) it was 50 to 500 nM; in test [3] it was below 50 nM.

In the case of `Cc1sc2c(c1C)C(c1ccc(N3CC(CN4CCN(CC5CN(c6ccc(C7=C(c8ccc(F)cc8F)CCCc8cc(C(=O)O)ccc87)cc6)C5)CC4)C3)cc1)=N[C@@H](C)c1nnc(C)n1-2` [IV-25], the concentration for 50% growth inhibition (GI50) in test [1] (setting [4]) is below 50 nM; in test [2] (setting [5]) it was 50 to 500 nM; in test [3] it was below 50 nM.

For the compound `Cc1sc2c(c1C)C(c1ccc(N3CCN(C[C@@H]4[C@H]5CN(c6ccc([C@@H]7c8ccc(O)cc8CC[C@@H]7c7ccccc7)cc6)C[C@@H]45)CC3)cc1)=N[C@@H](C)c1nnc(C)n1-2` [III-23], the values for the 50% growth inhibitory concentration (GI50) in test [1] (setting [4]), in test [2] (setting [5]) and in test [3] were below 50 nM, above 2500 nM and 50 to 500 nM, respectively.

As for `Cc1sc2c(c1C)C(c1ccc(NC[C@@H]3CN(CCOc4ccc([C@@H]5c6ccc(O)cc6CC[C@@H]5c5ccccc5)cc4)CCO3)cc1)=NC(Cc1ncco1)c1nnc(C)n1-2` (stereo partly drawn) [III-39], the GI50 in test [1] (setting [4]) was below 50 nM; in test [2] (setting [5]), 50 to 500 nM; in test [3], below 50 nM.

As to `Cc1sc2c(c1C)C(c1ccc(NCC3CCCCN3CCOc3ccc([C@@H]4c5ccc(O)cc5CC[C@@H]4c4ccccc4)cc3)cc1)=NC(Cc1ncco1)c1nnc(C)n1-2` (stereo partly drawn) [III-56], the GI50 in test [1] (setting [4]), in test [2] (setting [5]) and in test [3] was 50 to 500 nM throughout.

On to `Cc1sc2c(c1C)C(c1ccc(N3CC4(CC(CN5CCN(c6ccc([C@H]7c8ccc(O)cc8CC[C@H]7c7ccc(F)cc7)cc6F)CC5)C4)C3)cc1)=N[C@@H](C)c1nnc(C)n1-2` [III-281], for which the GI50 in test [1] (setting [4]) lay in the range of 50 to 500 nM; in test [2] (setting [5]), 500 to 2500 nM; in test [3], 500 to 2500 nM.

As for `Cc1sc2c(c1C)C(c1ccc(N3CCN(CCOc4ccc([C@H]5c6ccc(O)cc6CC[C@H]5c5ccccc5)cc4)CC3)cc1)=N[C@@H](C)c1nnc(C)n1-2` [III-17], the GI50 in test [1] (setting [4]), in test [2] (setting [5]) and in test [3] was 500 to 2500 nM in each case.

On to `Cc1sc2c(c1C)C(c1ccc(OC3CC4(CCN(c5ccc([C@@H]6c7ccc(O)cc7CC[C@@H]6c6ccccc6)cc5)CC4)C3)cc1)=N[C@@H](C)c1nnc(C)n1-2` [III-90], for which the GI50 is 500 to 2500 nM in test [1] (setting [4]), above 2500 nM in test [2] (setting [5]) and 50 to 500 nM in test [3].

With `Cc1sc2c(c1C)C(c1ccc(N3CC(CN4CCN(CC5(O)CN(c6ccc([C@@H]7c8ccc(O)cc8CC[C@@H]7c7ccccc7)cc6)C5)CC4)C3)cc1)=N[C@@H](C)c1nnc(C)n1-2` [III-166], the GI50 in test [1] (setting [4]) was below 50 nM; in test [2] (setting [5]), 50 to 500 nM; in test [3], 50 to 500 nM.

With `Cn1cc(-c2cc(C(C)(C)O)ccc2Oc2ccc(C#CC3CC4(CCN(CCOc5ccc(C(=O)c6c(-c7ccc(O)cc7)sc7cc(O)ccc67)cc5)CC4)C3)cc2)c2cc[nH]c2c1=O` [I-31, 4-(2-(4-((7-(2-(4-(6-hydroxy-2-(4-hydroxyphenyl)benzo [b]thiophene-3-carbonyl)phenoxy)ethyl)-7-azaspiro[3.5]nonan-2-yl)ethynyl)phenoxy)-5-(2-hydroxypropan-2-yl)phenyl)-6-methyl-1,6-dihydro-7H-pyrrolo[2,3-c]pyridin-7-one], the GI50 in test [1] (setting [6]) was below 50 nM; in test [2] (setting [7]), 50 to 500 nM; in test [3], below 50 nM.

As to `CC1=C(c2c(F)cc(F)cc2F)[C@H](c2ccc(OCCN3CCCC4(CCN(c5ccc(C6=N[C@@H](C)c7nnc(C)n7-c7sc(C)c(C)c76)cc5)CC4)C3)cc2)Oc2ccc(O)cc21` [V-5], the GI50 in test [1] (setting [4]) was in the range of 50 to 500 nM; in test [2] (setting [5]), 500 to 2500 nM; in test [3] it was 50 to 500 nM.
